These results are taken from patent publication US12642791B2, “Inhibitors of lysyl oxidases” (UNIVERSITY OF SOUTH CAROLINA, priority 2021, dated 2026).

Series [1] has as its system HCC1143. As to the kind of experiment: Doxorubicin chemosensitization in 3D collagen I culture. In kind it is cell-based, human. As to conditions: collagen I-embedded cells, combination with doxorubicin. On the procedure:
(§1) Collagen solution was prepared at a concentration of 0.5-1 mg/ml from the rat tail collagen I (Corning, USA) with a neutralization step including the addition of 1N NaOH solution. Cells were trypsinazed and resuspended in collagen:matrigel mix (1:1). 8×10^3 cells were seeded into 96-well or μ-Slide 8-well glass bottom chambers. After 1 hour of incubation at room temperature, media was added on top of the solidified collagen:matrigel mix. Drug treatments were done 12 hours after cell seeding.
(§2) Cells were embedded in type I collagen:matrigel mix as described above. Cells were grown in the presence of doxorubicin or LOX inhibitors alone or combination of LOX inhibitors with doxorubicin for 48 hours. After the treatment, cell viability was measured by using 3D Cell Titer Glo (Promega, USA) kit.

The subject of series [2] is MDA-MB-231 cells. The series is described as above. The settings on record: collagen I-embedded cells, combination with doxorubicin. It counts as cell-based, human. On the procedure: as §1, §2
The subject of series [3] is MCF12A. In words: Viability assay in normal cells. It counts as cell-based, human. As to conditions: normal breast cell line. An excerpt: FIG. 32. 6232 derivatives, 6403 and 6415, show no cytotoxicity in normal cells. Viability assay in normal breast cell line, MCF12A, human foreskin fibroblast cell line, HFF and human endothelial cell line, HUVEC treated with 6403 or 6415.

In series [4] the target is T1, LOXL2 (Homo sapiens, UniProt Q9Y4K0).
T1 sequence (Q9Y4K0 26-774): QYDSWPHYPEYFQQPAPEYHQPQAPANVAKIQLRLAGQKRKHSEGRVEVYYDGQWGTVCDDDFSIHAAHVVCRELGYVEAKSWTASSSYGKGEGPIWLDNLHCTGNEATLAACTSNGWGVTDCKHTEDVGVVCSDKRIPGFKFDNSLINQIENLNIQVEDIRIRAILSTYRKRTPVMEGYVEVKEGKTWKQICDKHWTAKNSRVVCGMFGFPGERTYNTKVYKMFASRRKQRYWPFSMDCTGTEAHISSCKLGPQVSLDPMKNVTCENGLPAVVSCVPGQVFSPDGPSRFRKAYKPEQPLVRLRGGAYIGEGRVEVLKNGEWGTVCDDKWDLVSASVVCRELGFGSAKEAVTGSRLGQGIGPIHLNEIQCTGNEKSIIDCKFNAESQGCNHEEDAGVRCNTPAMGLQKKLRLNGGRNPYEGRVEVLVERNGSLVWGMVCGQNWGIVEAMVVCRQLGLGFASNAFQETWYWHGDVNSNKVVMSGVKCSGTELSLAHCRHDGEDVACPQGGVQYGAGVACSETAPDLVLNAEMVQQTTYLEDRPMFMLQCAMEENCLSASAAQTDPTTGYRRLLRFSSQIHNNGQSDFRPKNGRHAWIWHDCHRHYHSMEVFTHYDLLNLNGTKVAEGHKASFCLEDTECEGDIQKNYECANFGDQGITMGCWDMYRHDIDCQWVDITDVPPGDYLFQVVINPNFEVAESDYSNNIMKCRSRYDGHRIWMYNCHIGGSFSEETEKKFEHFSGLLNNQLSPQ
As to the kind of experiment: Lysyl oxidase activity assay with recombinant LOXL2 protein. In kind it is biochemical. Set-up: purchased Abcam, USA. The settings on record: for inhibition of recombinant LOXL2: 10 μM compound. As to the method: For in vitro lysyl oxidase activity (for recombinant proteins), Lysyl Oxidase Activity kit (Biovision, USA) was used according to manufacturer's instructions. Briefly, 1 μg of LOX (Novus, USA), 0.2 μg of LOXL1 (Abcam, USA) and 0.1 μg of LOXL2 (Abcam, USA) were incubated with the reagent mix in the presence of inhibitors or vehicle. Lysyl oxidase activity of the wells was measured in multimode reader (every 30 sec, total 2.5 hours) in […] mode.

Series [5] has as its system Caki-1 cells. In words: ECM crosslinking in kidney cancer cells. It counts as cell-based, human. As to conditions: 6232 at 10 uM, BAPN at 10 mM. As to the method:
Immunofluorescence staining of cells was done in μ-Slide 8-well glass bottom chambers (Ibidi, Germany). Cells were fixed with 4% paraformaldehyde for 20 min, permeabilized with 0.5% Triton X-100 for 10 min and blocked in 5% BSA-PBS. Samples were incubated with primary (Collagen I, Fibronectin, F-actin, a-SMA) and secondary Alexa Fluor 647 or 488-labeled antibodies for 1.5 hours at room temperature. Cells were also counterstained with DAPI for 5 min. Images were acquired using ZEN 2012 SP5 (Black) LSM 700 (Carl Zeiss, DE).

Series [6] is described as follows: PK analysis. In kind it is in vivo, BALB/c mice. As to conditions: mice, orally 50 mg/kg, n=3. As to the method:
PK profiles of Lead LOX inhibitor, 6403 was tested in BALB/c mice. Three mice per group were dosed by oral gavage at 50 mg/kg. Serum samples were collected at time points; 0.25, 0.5, 2, 7 and 24 hours. 6403 was diluted with serum from healthy mice as standard and serum levels of LOX inhibitors were quantified by LC-MS/MS methods, compared to the standard readings and followed by calculation of PK parameters, including Cmax, AUC, T1/2 values, clearance (Cl) and oral bioavailability (F %). Cmax represents the maximum concentration of drug that observed in the serum. AUC is a measure of the total exposure of the drug in the serum. T1/2, half-life, is the time required to eliminate half of the drug. Cl is defined as the volume of blood from which all drug is removed per minute.

A short description of series [7]: In vivo toxicity testing. Set-up: species or system BALB/c mice. On the procedure:
FIG. 41. In vivo testing of 6403 with respect to PK and toxicity. A. Summary of PK parameters of 6403 given orally with 50 mg/kg, n=3. B. H&E staining of organs of BALB/c mice treated daily with 50 or 200 mg/kg of 6403 for one week. C. Body weight of mice treated with vehicle or 25, 50, 75, 100 or 200 mg/kg of 6403 for 5 days. D. Cell-free enzymatic MAO-A and MAO-B assay.

For series [8], the system named is ACHN ccRCC xenografts. As to the kind of experiment: Kidney cancer xenograft model. It counts as in vivo, BALB/c nude mice. The settings on record: 50 mg/kg, PO, daily. As to the method:
FIG. 42. Efficacy of 6403 as a single agent in ccRC xenografts. Tumor volume (A), % body weight change (B) and blood count (C) of 6403-treated (50 mg/kg, PO, daily) ACHN xenografts. μg=microgram. LOX expression in ACHN cells is provided by an inset next to the graph in A.
For kidney xenografts, 4×10^6 ACHN cells were mixed with 1:1 DMEM and matrigel and injected into the flank of the BALB/c nude mice. Mouse weight and tumor volumes were measured every second day using calipers. When tumor sizes reach 100 mm^3, mice were randomly distributed into vehicle and 6403 treatment group. Mice were treated daily by oral gavage with vehicle v (50% PEG400, 1% Tween 80 in acetate buffer pH=4) or 50 mg/kg of 6403.

As for `Cc1nc(N)sc1-c1csc(N(C)c2ccc(O)cc2)n1` [compound 6415, 4-[[4-(2-amino-4-methyl-thiazol-5-yl)thiazol-2-yl]-methyl-amino]phenol], the doxorubicin sensitization result in series [1] and in series [2] was “led to doxorubicin sensitization” in each case. Moreover, the “cell viability (cytotoxicity in normal cells)” value in series [3] is given as “no significant change in cell viability”. Also, in series [4], the “inhibition of recombinant LOXL2” value was “inhibits both LOX and LOXL2 recombinant proteins”. Also, the “inhibition of recombinant LOXL2 activity” value in series [4] (5 and 10 uM) is “inhibited the activity of LOX and LOXL2 recombinant proteins”.
As for `Cc1nc(N)sc1-c1csc(Nc2ccc([N+](=O)[O-])cc2)n1` [compound 6232, 4-methyl-5-[2-(4-nitroanilino)thiazol-4-yl]thiazol-2-amine], in series [5], the ECM crosslinking result is “decrease in ECM crosslinking”. Further, in series [4], the “inhibition of recombinant LOXL2” value is given as “moderately inhibit”.
`CC(=O)Nc1ccc(Nc2nc(-c3sc(N)nc3C)cs2)cc1` [compound 6403, N-[4-[[4-(2-amino-4-methyl-thiazol-5-yl)thiazol-2-yl]amino]phenyl]acetamide]: in series [1], the doxorubicin sensitization entry is on record as “led to doxorubicin sensitization”. Besides, the doxorubicin sensitization entry in series [2] is recorded as “led to doxorubicin sensitization”. In series [3], the “cell viability (cytotoxicity in normal cells)” value is “no significant change in cell viability”. For the same compound, in series [6], the “Area Under the Curve (AUC)” value is recorded as “high”, the “clearance (Cl)” value was “low”, the “half-life (T½)” value is given as “long” and the “maximum concentration (Cmax)” value is “high”. Moreover, the “volume of distribution (Vd)” value in series [6] was “high”. In series [7] (200 mg/kg vs vehicle), the blood cell counts entry is listed as “No significant effect”. Moreover, the “organ damage (H&E staining of organs)” value in series [7] (50 or 200 mg/kg daily for one week) is recorded as “did not lead to any observable organ damage”. In addition, the body weight entry in series [7] (different doses administered daily (25-200 mg/kg, 5 days)) was “No significant effect”. In series [8], the body weight entry is on record as “without impacting” and the “counts of major blood cells” value is “without impacting”. The tumor growth result in series [8] (single agent) is listed as “successfully reduced the tumor growth”.
